Tested on: yeast genes (expressed mRNA)
Assay: DNA chip measurement of expressed mRNA of yeast genes after culture with a toxic chemical substance
Type: cell-based, Saccharomyces cerevisiae S288C
Procedure, shortened: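 Yeast S288C, YPD 25° C; toxicant at log phase, 2 h, sublethal growth-inhibiting conc.; no-chemical control. Hot SDS/acetate RNA extraction, oligo-dT mRNA, Cy3/Cy5-dUTP RT. Whole-genome chip, 65° C >12 h. Readout: treated/control intensity ratio, ≥2 significant.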

COc1cc(CNC(=O)CCCCC=CC(C)C)ccc1O [(12), 8-Methyl-N-vanillyl-6-nonenamide]
The level of expressed mRNA in the presence of chemical substance/The level of expressed mRNA in the absence of chemical substance (yeast gene YAL012W, metabolism protein genes): 1.1 | The level of expressed mRNA in the presence of chemical substance/The level of expressed mRNA in the absence of chemical substance (yeast gene YAL034C, cultured two hours with substance): 2.8 | The level of expressed mRNA in the presence of chemical substance/The level of expressed mRNA in the absence of chemical substance (yeast gene YAL053W, cultured two hours with substance): 0.6 | The level of expressed mRNA in the presence of chemical substance/The level of expressed mRNA in the absence of chemical substance (yeast gene YAL054C): 1.0 | The level of expressed mRNA in the presence of chemical substance/The level of expressed mRNA in the absence of chemical substance (yeast gene YAR028W, cultured two hours with substance): 0.8 | The level of expressed mRNA in the presence of chemical substance/The level of expressed mRNA in the absence of chemical substance (yeast gene YBL001C): 0.7 | The level of expressed mRNA in the presence of chemical substance/The level of expressed mRNA in the absence of chemical substance (yeast gene YBL048W, cultured two hours with substance): 1.2 | The level of expressed mRNA in the presence of chemical substance/The level of expressed mRNA in the absence of chemical substance (yeast gene YBL107C, cultured two hours with substance): 1.4 | The level of expressed mRNA in the presence of chemical substance/The level of expressed mRNA in the absence of chemical substance (yeast gene YBR072W (stress protein genes)): 16.3 | The level of expressed mRNA in the presence of chemical substance/The level of expressed mRNA in the absence of chemical substance (yeast gene YBR203W, cultured two hours with substance): 1.6 | The level of expressed mRNA in the presence of chemical substance/The level of expressed mRNA in the absence of chemical substance (yeast gene YBR222C): 0.9 | The level of expressed mRNA in the presence of chemical substance/The level of expressed mRNA in the absence of chemical substance (yeast gene YBR256C): 1.7 | The level of expressed mRNA in the presence of chemical substance/The level of expressed mRNA in the absence of chemical substance (yeast gene YBR273C, cultured two hours with substance): 0.8 | The level of expressed mRNA in the presence of chemical substance/The level of expressed mRNA in the absence of chemical substance (yeast gene YCL009C): 1.7 | The level of expressed mRNA in the presence of chemical substance/The level of expressed mRNA in the absence of chemical substance (yeast gene YCR037C): 0.7 | The level of expressed mRNA in the presence of chemical substance/The level of expressed mRNA in the absence of chemical substance (yeast gene YCR048W): 0.9 | The level of expressed mRNA in the presence of chemical substance/The level of expressed mRNA in the absence of chemical substance (yeast gene YDL072C, cultured two hours with substance): 1.2 | The level of expressed mRNA in the presence of chemical substance/The level of expressed mRNA in the absence of chemical substance (yeast gene YDL110C, cultured two hours with substance): 1.5 | The level of expressed mRNA in the presence of chemical substance/The level of expressed mRNA in the absence of chemical substance (yeast gene YDL174C, cultured for two hours with substance): 2.8 | The level of expressed mRNA in the presence of chemical substance/The level of expressed mRNA in the absence of chemical substance (yeast gene YDL204W, cultured two hours with substance): 0.9 | The level of expressed mRNA in the presence of chemical substance/The level of expressed mRNA in the absence of chemical substance (yeast gene YDL222C, cultured two hours with substance): 1.0 | The level of expressed mRNA in the presence of chemical substance/The level of expressed mRNA in the absence of chemical substance (yeast gene YDR003W, cultured two hours with substance): 0.8 | The level of expressed mRNA in the presence of chemical substance/The level of expressed mRNA in the absence of chemical substance (yeast gene YDR009W): 1.0 | The level of expressed mRNA in the presence of chemical substance/The level of expressed mRNA in the absence of chemical substance (yeast gene YDR019C): 0.7 | The level of expressed mRNA in the presence of chemical substance/The level of expressed mRNA in the absence of chemical substance (yeast gene YDR031W, cultured two hours with substance): 0.9 | The level of expressed mRNA in the presence of chemical substance/The level of expressed mRNA in the absence of chemical substance (yeast gene YDR070C, cultured two hours with substance): 4.3 | The level of expressed mRNA in the presence of chemical substance/The level of expressed mRNA in the absence of chemical substance (yeast gene YDR330W, cultured two hours with substance): 1.0 | The level of expressed mRNA in the presence of chemical substance/The level of expressed mRNA in the absence of chemical substance (yeast gene YDR391C, cultured two hours with substance): 1.4 | The level of expressed mRNA in the presence of chemical substance/The level of expressed mRNA in the absence of chemical substance (yeast gene YDR406W (transport facilitation protein gene)): 3.9 | The level of expressed mRNA in the presence of chemical substance/The level of expressed mRNA in the absence of chemical substance (yeast gene YDR410C): 0.9 | The level of expressed mRNA in the presence of chemical substance/The level of expressed mRNA in the absence of chemical substance (yeast gene YDR411C, cultured two hours with substance): 1.5 | The level of expressed mRNA in the presence of chemical substance/The level of expressed mRNA in the absence of chemical substance (yeast gene YDR476C, cultured two hours with substance): 2.1 | The level of expressed mRNA in the presence of chemical substance/The level of expressed mRNA in the absence of chemical substance (yeast gene YDR486C, cultured two hours with substance): 1.3 | The level of expressed mRNA in the presence of chemical substance/The level of expressed mRNA in the absence of chemical substance (yeast gene YDR497C, metabolism protein genes): 0.9 | The level of expressed mRNA in the presence of chemical substance/The level of expressed mRNA in the absence of chemical substance (yeast gene YDR511W, cultured two hours with substance): 0.8 | The level of expressed mRNA in the presence of chemical substance/The level of expressed mRNA in the absence of chemical substance (yeast gene YDR534C, cultured two hours with substance): 1.5 | The level of expressed mRNA in the presence of chemical substance/The level of expressed mRNA in the absence of chemical substance (yeast gene YDR545W, cultured two hours with substance): 0.9 | The level of expressed mRNA in the presence of chemical substance/The level of expressed mRNA in the absence of chemical substance (yeast gene YEL001C, cultured two hours with substance): 1.1 | The level of expressed mRNA in the presence of chemical substance/The level of expressed mRNA in the absence of chemical substance (yeast gene YER004W, cultured two hours with substance): 1.7 | The level of expressed mRNA in the presence of chemical substance/The level of expressed mRNA in the absence of chemical substance (yeast gene YER026C): 1.7 | The level of expressed mRNA in the presence of chemical substance/The level of expressed mRNA in the absence of chemical substance (yeast gene YER035W, cultured two hours with substance): 1.1 | The level of expressed mRNA in the presence of chemical substance/The level of expressed mRNA in the absence of chemical substance (yeast gene YER038C, cultured two hours with substance): 0.9 | The level of expressed mRNA in the presence of chemical substance/The level of expressed mRNA in the absence of chemical substance (yeast gene YER079W, cultured two hours with substance): 0.9 | The level of expressed mRNA in the presence of chemical substance/The level of expressed mRNA in the absence of chemical substance (yeast gene YER096W, metabolism protein genes): 0.9 | The level of expressed mRNA in the presence of chemical substance/The level of expressed mRNA in the absence of chemical substance (yeast gene YER106W, cultured two hours with substance): 0.9 | The level of expressed mRNA in the presence of chemical substance/The level of expressed mRNA in the absence of chemical substance (yeast gene YER158C, cultured two hours with substance): 1.0 | The level of expressed mRNA in the presence of chemical substance/The level of expressed mRNA in the absence of chemical substance (yeast gene YER163C, cultured two hours with substance): 1.0 | The level of expressed mRNA in the presence of chemical substance/The level of expressed mRNA in the absence of chemical substance (yeast gene YER175C, cultured two hours with substance): 0.9 | The level of expressed mRNA in the presence of chemical substance/The level of expressed mRNA in the absence of chemical substance (yeast gene YFL006W, cultured two hours with substance): 1.2 | The level of expressed mRNA in the presence of chemical substance/The level of expressed mRNA in the absence of chemical substance (yeast gene YFL010C, cultured two hours with substance): 1.5
